According to ChEMBL document CHEMBL5244260, “Aldose reductase and protein tyrosine phosphatase 1B inhibitors as a promising therapeutic approach for diabetes mellitus” (Eur J Med Chem, 2020):
Values belong to the compound of their own block, whether it stands above or below them.

Assays:
[1] = molecular target: Aldo-keto reductase family 1 member B1 (Sus scrofa, UniProt P80276); experiment: Inhibition of ALR2 in pig lens using D,L-glyceraldehyde as substrate preincubated for 4 mins in presence of NADPH followed by substrate addition and measured after 4 mins by spectrophotometric assay; assay type: tissue-based
[2] = molecular target: T1, Tyrosine-protein phosphatase non-receptor type 1 (Homo sapiens, UniProt P18031); experiment: Inhibition of human recombinant PTP1B expressed in Escherichia coli BL21 (DE3) using pNPP as substrate by high-throughput screening assay
T1 sequence (P18031 whole entry): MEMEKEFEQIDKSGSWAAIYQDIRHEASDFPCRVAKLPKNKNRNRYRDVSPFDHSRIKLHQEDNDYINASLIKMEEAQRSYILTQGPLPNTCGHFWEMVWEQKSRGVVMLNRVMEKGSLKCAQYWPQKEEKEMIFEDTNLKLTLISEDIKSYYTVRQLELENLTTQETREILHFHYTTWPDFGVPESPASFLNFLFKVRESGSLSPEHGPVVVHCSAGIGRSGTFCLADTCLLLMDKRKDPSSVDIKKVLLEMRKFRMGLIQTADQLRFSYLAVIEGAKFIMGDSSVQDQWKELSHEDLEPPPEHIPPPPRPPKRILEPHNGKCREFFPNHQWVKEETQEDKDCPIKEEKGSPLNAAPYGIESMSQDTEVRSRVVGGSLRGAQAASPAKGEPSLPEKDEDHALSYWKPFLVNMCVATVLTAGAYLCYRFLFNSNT

[3] = molecular target: T1, Tyrosine-protein phosphatase non-receptor type 1; experiment: Inhibition of PTP1B (1 to 321 residues) (unknown origin) expressed in Escherichia coli BL21 assessed as inhibition constant using pNPP as substrate incubated for 2 to 3 min by spectrophotometry analysis
Homo sapiens [4] = species: Homo sapiens; experiment: Selectivity ratio of Ki for human PTP1B expressed in Escherichia coli BL21 (DE3) to Ki for TCPTP (unknown origin)
Homo sapiens [5] = species: Homo sapiens; experiment: Selectivity ratio of Ki for human PTP1B expressed in Escherichia coli BL21 (DE3) to Ki for CD45 (unknown origin)
Homo sapiens [6] = species: Homo sapiens; experiment: Selectivity ratio of Ki for human PTP1B expressed in Escherichia coli BL21 (DE3) to Ki for LAR (unknown origin)
Homo sapiens [7] = species: Homo sapiens; experiment: Selectivity ratio of Ki for human PTP1B expressed in Escherichia coli BL21 (DE3) to Ki for SHP-2 (unknown origin)
Homo sapiens [8] = species: Homo sapiens; experiment: Selectivity ratio of Ki for human PTP1B expressed in Escherichia coli BL21 (DE3) to Ki for Calcineurin (unknown origin)
[9] = molecular target: T1, Tyrosine-protein phosphatase non-receptor type 1; experiment: Inhibition of human PTP1B (1 to 298 residues) expressed in Escherichia coli using FDP as substrate by microplate reader
Homo sapiens [10] = species: Homo sapiens; experiment: Selectivity ratio of IC50 for human PTP1B (1 to 298 residues) expressed in Escherichia coli BL21 (DE3) to IC50 for TCPTP (unknown origin)
[11] = Inhibition of human recombinant ALR1 expressed in Escherichia coli by Coomassie reagent assay
[12] = Inhibition of ALR2 in rat lens using D,L-glyceraldehyde as substrate preincubated for 10 mins in presence of NADPH followed by substrate addition and measured after 20 mins by spectrophotometric assay; assay type: tissue-based
[13] = molecular target: T2, Aldo-keto reductase family 1 member B1 (Homo sapiens, UniProt P15121); experiment: Inhibition of human ALR2 expressed in Escherichia coli BL21 (DE3) assessed as inhibition constant using D,L-glyceraldehyde as substrate in presence of NADPH by Michaelis-Menten analysis
[14] = molecular target: T1, Tyrosine-protein phosphatase non-receptor type 1; experiment: Inhibition of Flag-tagged human PTP1B (1 to 298 residues) expressed in Escherichia coli BL21 using FDP as substrate
[15] = molecular target: T3, Tyrosine-protein phosphatase non-receptor type 2 (Homo sapiens, UniProt P17706); experiment: Inhibition of Flag-tagged human TCPTP (1 to 296 residues) expressed in Escherichia coli BL21 using FDP as substrate
T3 sequence (P17706 whole entry): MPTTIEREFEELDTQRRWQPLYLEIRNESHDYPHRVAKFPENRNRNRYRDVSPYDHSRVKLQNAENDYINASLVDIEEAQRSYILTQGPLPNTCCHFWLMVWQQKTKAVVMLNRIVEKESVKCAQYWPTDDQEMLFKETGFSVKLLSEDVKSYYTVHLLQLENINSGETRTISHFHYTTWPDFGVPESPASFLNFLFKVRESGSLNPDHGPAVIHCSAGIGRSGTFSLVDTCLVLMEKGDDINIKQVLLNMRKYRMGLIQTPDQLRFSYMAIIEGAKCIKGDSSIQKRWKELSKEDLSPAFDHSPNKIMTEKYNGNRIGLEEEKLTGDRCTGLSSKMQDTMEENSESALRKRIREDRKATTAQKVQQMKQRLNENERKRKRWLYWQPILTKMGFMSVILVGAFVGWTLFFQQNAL

[16] = Inhibition of ALR2 in Wistar rat using D,L-glyceraldehyde as substrate preincubated for 10 mins in presence of NADPH followed by substrate addition and measured after 4 mins by spectrophotometric assay
[17] = molecular target: Dual specificity protein phosphatase 3 (Homo sapiens, UniProt P51452); experiment: Inhibition of human recombinant VHR expressed in Escherichia coli BL21 (DE3) assessed as inhibition constant using pNPP as substrate by stopped-flow spectrophotometer
Dual specificity protein phosphatase 3, sequence (P51452 whole entry): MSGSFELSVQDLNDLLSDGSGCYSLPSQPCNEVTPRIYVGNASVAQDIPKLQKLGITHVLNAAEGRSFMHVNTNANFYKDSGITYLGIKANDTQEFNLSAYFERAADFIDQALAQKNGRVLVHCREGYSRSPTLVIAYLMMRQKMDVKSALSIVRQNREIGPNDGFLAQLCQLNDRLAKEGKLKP

[18] = molecular target: Receptor-type tyrosine-protein phosphatase F (Rattus norvegicus, UniProt Q64604); experiment: Inhibition of rat recombinant LAR expressed in Escherichia coli assessed as inhibition constant using pNPP as substrate incubated for 5 mins by […]
Receptor-type tyrosine-protein phosphatase F, sequence (Q64604 whole entry, the tested form may be a part): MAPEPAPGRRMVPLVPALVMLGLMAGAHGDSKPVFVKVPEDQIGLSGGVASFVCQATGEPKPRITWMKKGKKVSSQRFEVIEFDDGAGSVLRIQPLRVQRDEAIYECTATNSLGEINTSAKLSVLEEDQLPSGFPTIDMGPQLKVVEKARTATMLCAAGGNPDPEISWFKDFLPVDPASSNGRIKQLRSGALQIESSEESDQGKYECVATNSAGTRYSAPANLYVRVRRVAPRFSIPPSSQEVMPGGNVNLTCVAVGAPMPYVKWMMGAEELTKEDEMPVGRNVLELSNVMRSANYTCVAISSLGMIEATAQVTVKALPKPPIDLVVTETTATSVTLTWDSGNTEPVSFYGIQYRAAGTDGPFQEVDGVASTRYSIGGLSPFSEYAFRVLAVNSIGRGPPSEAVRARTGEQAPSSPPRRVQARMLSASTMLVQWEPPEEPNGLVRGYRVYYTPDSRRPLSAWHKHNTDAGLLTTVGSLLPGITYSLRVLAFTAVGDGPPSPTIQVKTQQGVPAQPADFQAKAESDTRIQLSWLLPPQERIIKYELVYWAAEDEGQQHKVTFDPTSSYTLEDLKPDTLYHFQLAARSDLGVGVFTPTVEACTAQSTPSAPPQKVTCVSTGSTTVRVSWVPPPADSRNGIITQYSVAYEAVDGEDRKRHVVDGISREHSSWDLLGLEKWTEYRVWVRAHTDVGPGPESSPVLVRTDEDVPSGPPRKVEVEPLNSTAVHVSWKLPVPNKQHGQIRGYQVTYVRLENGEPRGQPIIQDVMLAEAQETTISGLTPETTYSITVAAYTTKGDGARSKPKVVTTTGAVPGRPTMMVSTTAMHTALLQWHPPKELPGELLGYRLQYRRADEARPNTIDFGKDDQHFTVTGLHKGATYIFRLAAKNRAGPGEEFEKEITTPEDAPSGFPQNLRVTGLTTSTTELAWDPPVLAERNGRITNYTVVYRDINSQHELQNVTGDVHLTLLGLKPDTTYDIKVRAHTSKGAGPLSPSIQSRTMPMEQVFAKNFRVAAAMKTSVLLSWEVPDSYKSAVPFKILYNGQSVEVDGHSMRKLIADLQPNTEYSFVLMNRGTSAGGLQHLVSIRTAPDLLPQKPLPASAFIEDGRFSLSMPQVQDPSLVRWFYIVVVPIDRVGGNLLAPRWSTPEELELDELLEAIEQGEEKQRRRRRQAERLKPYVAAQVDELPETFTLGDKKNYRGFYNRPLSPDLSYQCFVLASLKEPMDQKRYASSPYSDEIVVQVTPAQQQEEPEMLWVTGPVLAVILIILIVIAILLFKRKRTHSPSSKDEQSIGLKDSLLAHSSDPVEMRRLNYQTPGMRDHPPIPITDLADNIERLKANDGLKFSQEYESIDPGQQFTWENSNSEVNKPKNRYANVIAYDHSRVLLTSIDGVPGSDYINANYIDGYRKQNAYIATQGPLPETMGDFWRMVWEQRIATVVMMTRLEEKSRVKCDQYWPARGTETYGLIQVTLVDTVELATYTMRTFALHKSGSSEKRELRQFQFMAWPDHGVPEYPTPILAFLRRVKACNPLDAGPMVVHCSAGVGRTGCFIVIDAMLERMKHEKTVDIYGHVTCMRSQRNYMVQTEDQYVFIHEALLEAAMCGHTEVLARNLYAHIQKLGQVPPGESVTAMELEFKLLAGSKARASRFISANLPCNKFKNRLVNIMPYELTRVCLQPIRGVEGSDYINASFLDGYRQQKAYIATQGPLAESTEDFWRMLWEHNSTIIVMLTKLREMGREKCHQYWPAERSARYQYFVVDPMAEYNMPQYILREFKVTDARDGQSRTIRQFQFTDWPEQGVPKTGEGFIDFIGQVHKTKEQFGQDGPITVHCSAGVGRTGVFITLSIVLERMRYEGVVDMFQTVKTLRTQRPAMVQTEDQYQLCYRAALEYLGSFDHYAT

[19] = molecular target: T1, Tyrosine-protein phosphatase non-receptor type 1; experiment: Inhibition of human recombinant PTP1B (1 to 321 residues) expressed in Escherichia coli BL21 (DE3) assessed as inhibition constant using pNPP as substrate by Michaelis-Menten analysis
[20] = molecular target: Receptor-type tyrosine-protein phosphatase alpha (Homo sapiens, UniProt P18433); experiment: Inhibition of human PTPalpha assessed as inhibition constant
Receptor-type tyrosine-protein phosphatase alpha, sequence (P18433 whole entry): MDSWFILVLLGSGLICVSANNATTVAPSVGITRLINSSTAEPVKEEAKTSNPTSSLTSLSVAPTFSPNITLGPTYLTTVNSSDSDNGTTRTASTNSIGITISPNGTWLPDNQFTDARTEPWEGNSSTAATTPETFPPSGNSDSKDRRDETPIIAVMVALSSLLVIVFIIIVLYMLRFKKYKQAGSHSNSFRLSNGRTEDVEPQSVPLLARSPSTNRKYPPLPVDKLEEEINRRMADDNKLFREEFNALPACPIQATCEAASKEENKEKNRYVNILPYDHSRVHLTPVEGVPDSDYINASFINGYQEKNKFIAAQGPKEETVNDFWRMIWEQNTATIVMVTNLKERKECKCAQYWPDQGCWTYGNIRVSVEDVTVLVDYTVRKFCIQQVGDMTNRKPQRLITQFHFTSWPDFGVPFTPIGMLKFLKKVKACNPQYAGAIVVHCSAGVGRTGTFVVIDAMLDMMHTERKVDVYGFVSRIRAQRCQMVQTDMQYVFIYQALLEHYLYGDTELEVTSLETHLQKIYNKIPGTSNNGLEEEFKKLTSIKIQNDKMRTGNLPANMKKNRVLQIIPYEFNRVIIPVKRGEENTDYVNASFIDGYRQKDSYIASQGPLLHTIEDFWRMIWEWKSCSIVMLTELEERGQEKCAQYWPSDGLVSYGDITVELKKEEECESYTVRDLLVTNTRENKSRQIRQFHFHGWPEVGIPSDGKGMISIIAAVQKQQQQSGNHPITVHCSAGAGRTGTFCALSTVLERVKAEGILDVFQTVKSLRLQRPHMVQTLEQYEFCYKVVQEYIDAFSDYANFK

[21] = molecular target: T1, Tyrosine-protein phosphatase non-receptor type 1; experiment: Inhibition of human recombinant PTP1B expressed in Escherichia coli using pNPP as substrate by microplate reader assay
[22] = Inhibition of ALR2 in Wistar rat lens using D,L-glyceraldehyde as substrate preincubated for 10 mins in presence of NADPH followed by substrate addition and measured after 5 mins by spectrophotometric assay; assay type: tissue-based
[23] = molecular target: Aldo-keto reductase family 1 member B1 (Rattus norvegicus, UniProt P07943); experiment: Inhibition of ALR in Fischer-344 rat lens using D,L-glyceraldehyde as substrate in presence of NADPH measured after 3 mins by spectrophotometric assay; assay type: tissue-based
[24] = molecular target: T2, Aldo-keto reductase family 1 member B1; experiment: Inhibition of Aldose reductase (unknown origin)
[25] = molecular target: T2, Aldo-keto reductase family 1 member B1; experiment: Inhibition of Aldose reductase in human muscle tissue using D,L-glyceraldehyde as substrate in presence of NADPH by spectrophotometric assay; assay type: tissue-based

- IC50 [1]: 18 µM
Structure (SMILES): Cc1cc2c(s1)CCC1CC(=O)N(CCCCCC(=O)O)N=C21 (stereo unspecified)

- IC50 [2]: 1.6 µM
Structure (SMILES): Cc1cc(/C=C2/S/C(=N/c3ccc(Cl)cc3)NC2=O)c(C)n1-c1cc(C(=O)O)cc(C(=O)O)c1

- IC50 [1]: 7.6 µM
Structure (SMILES): O=C(O)CCCCCN1N=C2c3ccsc3CCC2CC1=O (stereo unspecified)

- Ki [3]: 0.025 µM
Structure (SMILES): CCCCCCCCCCCCCCC(=O)N[C@@H](Cc1ccc(C(F)(F)P(=O)(O)O)cc1)C(=O)N[C@@H](CC(=O)O)C(=O)N[C@@H](Cc1ccc(C(F)(F)P(=O)(O)O)cc1)C(N)=O

- Ratio Ki (Homo sapiens [4]): 2
- Ratio Ki (Homo sapiens [5]): 2700
- Ratio Ki (Homo sapiens [6]): 36
- Ratio Ki (Homo sapiens [7]): 104
- Ratio Ki (Homo sapiens [8]): > 13000
Structure (SMILES): CC(=O)N[C@@H](Cc1ccc(N(C(=O)C(=O)O)c2ccccc2C(=O)O)c2ccccc12)C(=O)NCCCCCOc1cc2ccccc2cc1C(=O)O

- IC50 [9]: 0.005 µM
- Ratio IC50 (Homo sapiens [10]): 7.2
Structure (SMILES): COC(CC(C)C)c1ccc2ccc(CC(Cc3ccc(C(F)(F)P(=O)(O)O)cc3)(c3ccccc3)n3nnc4ccccc43)c(P(=O)(O)O)c2n1 (stereo unspecified)

- IC50 [11]: 33 µM
Structure (SMILES): O=C(O)COc1cc(F)ccc1C(=S)NCc1ccc(Br)cc1F

- IC50 [12]: 0.49 µM
Structure (SMILES): Cc1ccc(C(=O)/C(=C/c2ccc(O)c(O)c2)C(=O)O)cc1

- Ki [13]: 0.107 µM
Structure (SMILES): N#Cc1ccc(CNC(=O)c2ccc(Cl)cc2OCC(=O)O)cc1[N+](=O)[O-]

- IC50 [14]: 0.163 µM
- IC50 [15]: 1.6 µM
Structure (SMILES): Cc1noc(-c2ccc(C(C/C=C/c3ccccc3)(Cc3ccc(C(F)(F)P(=O)(O)O)cc3)n3nnc4ccccc43)cc2)n1 (stereo unspecified)

- IC50 [16]: 0.00644 µM
Structure (SMILES): O=C(O)Cn1c(=O)c(Cc2ccc(Br)cc2F)nc2ccc(F)cc21

- Ki [17]: 3600 µM
- Ki [18]: 100 µM
- Ki [19]: 0.93 µM
- Ki [20]: 120 µM
Structure (SMILES): O=C(CCc1ccc(C(F)(F)P(=O)(O)O)cc1)Nc1cc(NC(=O)CCc2ccc(C(F)(F)P(=O)(O)O)cc2)cc(C(=O)NCCc2ccc(C(=O)O)cc2)c1

- IC50 [21]: 2.48 µM
Structure (SMILES): CC(=C\c1csc([C@@H](Cc2ccc(OCc3ccccc3)cc2)NC(=O)CC2CCCCC2)n1)/C=C(\C)C(=O)O

- IC50 [22]: 0.094 µM
Structure (SMILES): O=C(O)CC1=CN(/C=C/c2ccc(O)cc2)S(=O)(=O)c2ccccc21

- IC50 [23]: 0.045 µM
Structure (SMILES): O=C(O)Cn1cc(-c2nc3ccccc3s2)cc1C(=O)c1ccccc1

- IC50 [24]: 4.6 µM
Structure (SMILES): O=[N+]([O-])c1cc(Br)cc2c1NC=NS2(=O)=O

- IC50 [25]: 0.35 µM
Structure (SMILES): Cc1ccc(F)c(N(C)S(=O)(=O)C[N+](=O)[O-])c1
